Reference: patent US10464939B2, “Deuterated triazolopyridazine as a kinase modulator” (Janssen Pharmaceutica NV, priority 2014, dated 2019)
Where two headings read alike, the source gives them in different places.

Assays:
CHO OCT2 cells = assay: Cytotoxicity test (PrestoBlue viability), CHO OCT2 cells; type: cell-based, Chinese Hamster; settings: after 1 minute of incubation, compound of formula (I) 100 μM, Triton X-100 1%
Description: (§1) Cytotoxicity of the compound of formula (I) was determined at 100 μM, and this in both CHO parental and OCT2 cells. Also a 1% Triton-X100 condition was included, as a positive control cytotoxic reagent. After 1 minute of incubation the supernatant was aspirated, the dry cells washed twice with 1 mL HBSS^+/++10 mM Hepes pH 7.4 (37° C.). After aspiration of the buffer, a 1/10 dilution of the PrestoBlue Viability Reagent (Life Technologies) in HBSS^+/++10 mM Hepes pH 7.4 was added and plates were incubated for 60 minutes at 37° C., protected from light. Each well was sampled (150 μL) in a black 96-well plate and fluorescence was measured (Excitation: 560 nm/12 nm bandwith, Emission: 590 nm/12 nm bandwith).

CHO Parental cells = assay: Cytotoxicity test (PrestoBlue viability), CHO parental cells; type: cell-based, Chinese Hamster; settings: for cytotoxic effects (in words): 100 μM, both CHO parental and OCT2 cells; for Cell Viability %: CHO parental cells, after 1 minute of incubation, compound of formula (I) 100 μM, Triton X-100 1%
Description: as §1

[1] = Pre-clinical toxicity tests of compound A in dog; type: in vivo
Description: (§2) [drawing 2] was explored in a phase I, first-in-human trial. […] Extensive additional pre-clinical experiments were performed to understand the nature of the renal effects. Metabolism data pointed into the direction of the rabbit to be a suitable toxicology species.

[2] = In vivo pharmacokinetic determination of compound (I), compound A and their metabolites in plasma; parameters: species or system New Zealand White Rabbits; settings: both sexes, New Zealand White, male and female rabbit; for AUC(0-inf) / AUC(0-t) / Cmax / Tmax / MRT: rabbit, po, 10 mg/kg; for MRT: read-out: MRT (mean residence time)
Source text: In vivo pharmacokinetic determination of compound (I), compound A and their metabolites in New Zealand White Rabbits.
Male New Zealand rabbits (Crl: KBL (NZW), Charles River, France) and female New Zealand rabbits (NZW INRA A1077, Centre Lago) were used. Per compound (compound of formula (I) and compound A) one male and two female rabbits were used with a mean weight of 2.6±0.2 kg. A complete plasma concentration time-profile was obtained from each individual animal. Standard diet and tap water were available ad libitum. Compound of formula (I) and compound A were both dissolved in a 10% (w/v) SBE-B-CD (sulfobutyl ether-beta-cyclodextrin) research grade (Captisol) solution at a final concentration of 1 mg/ml. HCl and PVP K30 were added to facilitate dissolution of the compounds. After total dissolution, the pH was brought up to 2.6/2.7 with NaOH. The formulations were stored at room temperature, protected from light and analysed quantitatively with LC-MS/MS on the day of preparation. Stability of the formulations was checked on the day of dosing. Animals were dosed orally by gavage at 10 ml/kg to obtain a final dose of 10 mg/kg. From each individual dosed animal, blood samples were taken at 30 minutes, 1, 2, 4, 7 and 24 hours after oral administration. Blood was collected by multiple sampling from a lateral ear vein into Multivette® 600 K3E tubes (Sarstedt). Samples were placed immediately on melting ice and plasma was obtained following centrifugation at 4° C. for 10 minutes at approximately 1900×g. All samples were shielded from daylight and stored at ≤−18° C. prior to analysis. Plasma samples were analysed for compound (I), compound A, metabolite 1, metabolite 2, N-desmethyl metabolite 3 (which was calculated on the curve of N-desmethyl metabolite 4) and N-desmethyl metabolite 4 using a qualified research LC-MS/MS method. The key analytical performance (linearity, upper and lower limit of quantification, accuracy and precision) of the method was reported together with the plasma concentrations. The lower limit of quantification (LLOQ) for plasma was 1.00 ng/ml for all compounds. A limited pharmacokinetic analysis was performed using Phoenix™ Professional (Version 6.2.1). A non-compartmental analysis using the lin/log trapezoidal rule with lin/log interpolation was used for all data.

[3] = Pre-clinical toxicity tests of compound A in rat; type: in vivo
Description: as §2

SNU-5 = assay: Proliferation assay with Alamar blue, Snu-5 cells; type: cell-based; settings: Homo sapiens, 96 h, 4 days incubation
Description: (§3) Inhibition of Proliferation of Cancer Cells Carrying Met Amplification and Dependent on Met Signaling by the Compound of Formula (I)
(§4) Proliferation Assay with Alamar Blue
(§5) Cells were seeded out in a 96-well plate in 180 μl growth medium. Depending on the growth curve test the amount of cells per well was different for each cell line. The cells were incubated overnight in an incubator at 37° C. in a humidified 5% CO2 atmosphere. The next day: The compound plate was prepared and 4 μl of compound was added to 196 μl of pre-warmed medium. 20 μl of this was added to 180 μl of cells. This was incubated for 4 days after adding the compound at 37° C. in a humidified 5% CO2 atmosphere. After the 4 days 40 μl of Alamar blue solution was added. This was incubated at 37° C. in a humidified 5% CO2 atmosphere for 4 hours (depending on the cell line this was tested before at different hours of incubation during the growth curve test). After the 4 hours the fluorescence was measured at excitation 530 nm, emission 590 nm. The fluorescence of control (DMSO treatment) was taken as 100% and the fluorescence of cells incubated with compounds was calculated against the control in %. So a dose response curve could be made and a IC50 could be calculated.

[4] = Toxicology study of compound A in rabbit; type: in vivo
Description: as §2

[5] = Phase I, first-in-human trial of compound A; type: in vivo
Description: The safety, pharmacokinetics, pharmacodynamics and initial efficacy of the potent and selective c-Met inhibitor with the following structure
as §2

EBC1 = assay: Proliferation assay with Alamar blue, EBC-1 cells; type: cell-based; settings: Homo sapiens, EBC-1, 96 h, 4 days incubation
Description: as §3, §4, §5

OCT2 (SLC22A2) = biological target: T1, OCT2 (SLC22A2) (Homo sapiens, UniProt O15244); assay: in vitro; type: cell-based
T1 construct: host or cells: Chinese Hamster Ovary (CHO) cells stably transfected with OCT2
T1 sequence (O15244 1-555): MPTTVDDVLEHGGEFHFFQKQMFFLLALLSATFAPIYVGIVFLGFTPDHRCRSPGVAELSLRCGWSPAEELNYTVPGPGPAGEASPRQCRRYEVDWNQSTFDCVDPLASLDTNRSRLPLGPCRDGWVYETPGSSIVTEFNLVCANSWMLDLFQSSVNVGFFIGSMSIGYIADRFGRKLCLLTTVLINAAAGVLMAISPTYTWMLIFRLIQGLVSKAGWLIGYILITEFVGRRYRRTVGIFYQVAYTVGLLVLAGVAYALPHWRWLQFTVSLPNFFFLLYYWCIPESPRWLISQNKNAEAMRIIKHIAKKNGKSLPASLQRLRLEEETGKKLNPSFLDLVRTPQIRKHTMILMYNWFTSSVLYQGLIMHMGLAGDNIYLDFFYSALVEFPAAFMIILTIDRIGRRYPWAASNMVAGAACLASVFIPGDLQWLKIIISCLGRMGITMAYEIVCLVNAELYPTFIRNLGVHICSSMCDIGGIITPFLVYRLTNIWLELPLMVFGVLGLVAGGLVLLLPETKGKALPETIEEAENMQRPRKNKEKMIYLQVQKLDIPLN
Description: This was tested using Chinese Hamster Ovary (CHO) cells, parental or stably transfected with OCT2. ^14C-Metformin was used as OCT2 substrate.
CHO cell lines, parental and stably transfected with OCT2 were obtained from Solvo Biotechnology (Hungary).
CHO cells were cultured in DMEM-F12 (Dulbecco's Modified Eagle Medium) supplemented with 0.03 mg/mL L-Proline, 1% L-Glutamine, penicillin (50-100 U/mL), streptomycin (50-100 μg/mL) and 10% (v/v) foetal calf or bovine serum (FCS) further referred to as “CHO culture medium”.
If needed, non-radiolabeled and radio-labeled compounds were mixed to obtain the proper chemical and radioactive concentration. Proper solvent controls were included.
Both, CHO parental and OCT2 cells were seeded into 24 well plates (1 mL/well, 400 000 cells/well) in CHO culture medium.
Transport experiments were performed in Hank's Balanced Salt Solution^+Ca,+Mg (HBSS^+/+) supplemented with 10 mM HEPES at pH 7.4. All media added to the cells and plates were kept at 37° C.
Before the incubation, the cells in each well were washed twice with 1 mL HBSS^+/++10 mM Hepes pH 7.4 at 37° C. Next, the incubation medium, containing reference substrate and the inhibitors (or inhibitor solvent) was added (250 μL/well).
At the time of dose administration (0 min), 150 μL of the dosing solution was sampled in triplicate for determination of initial concentrations by Liquid Scintillation Counting (LSC). During the incubation period, the plates were kept at 37° C.
To stop the reaction, 1.5 mL ice-cold HBSS^+/+ was added to each well and the liquids were aspirated. Again, to each well 2 mL ice-cold HBSS^+/+ was added and aspirated while keeping the plate angled. Following aspiration of the last well, all the wells were aspirated again taking care of not touching the cells.
To lyse the cells, 250 μL of Mammalian Protein Extraction Reagent (M-PER) lysis buffer was added to each well and the plates were shaken for at least 10 minutes (400 rpm). For LSC, a 150 μL sample/well was taken and for protein analysis a 25 μL sample/well. […]

[6] = system: aldehyde oxidase / CYP450; assay: Metabolisation of compound of formula (I) compared to compound A
Source text: This may decrease renal toxicity.
In case of the present compound of formula (I) more of the N-desmethyl metabolite with the following structure is formed

[7] = Solubility of Metabolite 2; type: physicochemical
Source text: Solubility of Metabolite 2:

[8] = single oral 10 mg/kg of compound (I)
[9] = single oral 10 mg/kg of compound A

| Compound | AUC(0-inf) [2, 8] [ng·h/mL] | AUC(0-t) [2, 8] [ng·h/mL] | Cmax [2, 8] [ng/mL] | Tmax [2, 8] [h] | MRT [2, 8] [h] | AUC(0-inf) [2, 9] [ng·h/mL] | AUC(0-t) [2, 9] [ng·h/mL] | Cmax [2, 9] [ng/mL] | Tmax [2, 9] [h] | MRT [2, 9] [h] | further results |
| --- | --- | --- | --- | --- | --- | --- | --- | --- | --- | --- | --- |
| Triton X-100 [reference compound] |  |  |  |  |  |  |  |  |  |  | Cell Viability % (CHO OCT2 cells): 0%; cytotoxic effects (in words) (CHO Parental cells): viability dropped dramatically; Cell Viability % (CHO Parental cells): 0% |
| Cn1cc(-c2ccc3nnc(C(F)(F)c4ccc5ncccc5c4)n3n2)cn1 [Compound A, reference compound] | 62.3 ± 47.8 | 53.7 ± 40.6 | 27.6 ± 17.4 | 0.5 | 3.24 ± 0.76 | 8220 ± 5740 | 8190 ± 5740 | 1830 ± 1360 | 1 | 5.2 ± 0.9 | pre-clinical toxicity profile [1]: clean toxicity profile; half-life [2, 8]: 2.1 ± 0.4 h; pre-clinical toxicity profile [3]: clean toxicity profile; IC50 (SNU-5): 13.8 nM; effect on renal function [4]: did affect renal function; histological analysis of kidney [4]: crystal formation with consequently degenerative and inflammatory changes in the kidney; toxicity finding in phase I, first-in-human trial [5]: unexpected renal toxicity; IC50 (EBC1): 13.4 nM |
| C=C[C@H]1C[N@@]2CC[C@H]1C[C@@H]2[C@@H](O)c1ccnc2ccc(OC)cc12 [Quinidine, reference compound] |  |  |  |  |  |  |  |  |  |  | inhibition at 1 min, 300 μM (OCT2 (SLC22A2); human, pH 7.4, inhibition of 14C-Metformin uptake): 85.5% |
| [2H]c1ccc2cc(C(F)(F)c3nnc4ccc(-c5cnn(C)c5)nn34)ccc2n1 [Compound of formula (I)] | 8570 ± 6440 | 8460 ± 6520 | 3570 ± 2320 | 0.5 | 4.6 ± 1 |  |  |  |  |  | IC50 (OCT2 (SLC22A2)): 670 ± 20 nM; inhibition of the 14C-Metformin uptake in OCT2 cells (in words) (OCT2 (SLC22A2)): shows inhibition; formation of insoluble/less soluble aldehyde oxidase mediated metabolites [6]: down regulated; Cell Viability % (CHO OCT2 cells): 103%; IC50 (SNU-5): 13.2 nM; cytotoxic effects (in words) (CHO Parental cells): no cytotoxic effects were observed; Cell Viability % (CHO Parental cells): 104%; IC50 (EBC1): 12 nM |

The next lines start with results.

| AUC(0-inf) [2, 8] [ng·h/mL] | AUC(0-t) [2, 8] [ng·h/mL] | Cmax [2, 8] [ng/mL] | Tmax [2, 8] [h] | MRT [2, 8] [h] | AUC(0-inf) [2, 9] [ng·h/mL] | AUC(0-t) [2, 9] [ng·h/mL] | Cmax [2, 9] [ng/mL] | Tmax [2, 9] [h] | MRT [2, 9] [h] | Compound | further results |
| --- | --- | --- | --- | --- | --- | --- | --- | --- | --- | --- | --- |
| 409 ± 7 |  | 57.5 ± 34.2 | 2.3 ± 1.5 | 7 ± 0.7 | 1050 ± 421 | 934 ± 336 | 126 ± 80 | 2.7 ± 1.2 | 7.8 ± 1.4 | O=c1ccc2cc(C(F)(F)c3nnc4ccc(-c5cn[nH]c5)nn34)ccc2[nH]1 [Metabolite 1, 6-{Difluoro[6-(1H-pyrazol-4-yl)[1,2,4]triazolo[4,3-b]pyridazin-3-yl]methyl}quinolin-2(1H)-one] |  |
|  |  |  |  |  | 1510 ± 190 | 1490 ± 193 | 299 ± 146 | 1.3 ± 0.6 | 5.7 ± 0.9 | FC(F)(c1ccc2ncccc2c1)c1nnc2ccc(-c3cn[nH]c3)nn12 [N-desmethyl metabolite 4, 6-{Difluoro[6-(1H-pyrazol-4-yl)[1,2,4]triazolo[4,3-b]pyridazin-3-yl]methyl}quinoline] |  |
| 2360 ± 450 | 2310 ± 392 | 738 ± 447 | 1.2 ± 0.8 | 5.1 ± 0.3 |  |  |  |  |  | [2H]c1ccc2cc(C(F)(F)c3nnc4ccc(-c5cn[nH]c5)nn34)ccc2n1 [N-desmethyl metabolite 3] | half-life [2, 8]: 4.4 ± 1.9 h |
| 152 ± 81 | 127 ± 65 | 39.8 ± 13.1 | 0.8 ± 0.3 | 3.8 ± 0.7 | 439 ± 331 | 341 ± 259 | 84.4 ± 55.9 | 1 | 5 ± 9 | Cn1cc(-c2ccc3nnc(C(F)(F)c4ccc5[nH]c(=O)ccc5c4)n3n2)cn1 [Metabolite 2, 6-{Difluoro[6-(1-methyl-1H-pyrazol-4-yl)[1,2,4]triazolo[4,3-b]pyridazin-3-yl]methyl}quinolin-2(1H)-one] | half-life [2, 9]: 3 ± 0.5 h; solubility ([7]; pH 4.84, aqueous buffer): 1 µg/mL; solubility ([7]; pH 7.33, aqueous buffer): 2 µg/mL |
